Measurements reported in the Kinase Knowledgebase extract (Sharma et al. 2016).

Each compound was assayed against PIK3CA (human) (UniProt P42336) (assay: Inhibition of PIK3CA Kinase Activity).
Sequence of PIK3CA (human) (P42336 whole entry, looked up): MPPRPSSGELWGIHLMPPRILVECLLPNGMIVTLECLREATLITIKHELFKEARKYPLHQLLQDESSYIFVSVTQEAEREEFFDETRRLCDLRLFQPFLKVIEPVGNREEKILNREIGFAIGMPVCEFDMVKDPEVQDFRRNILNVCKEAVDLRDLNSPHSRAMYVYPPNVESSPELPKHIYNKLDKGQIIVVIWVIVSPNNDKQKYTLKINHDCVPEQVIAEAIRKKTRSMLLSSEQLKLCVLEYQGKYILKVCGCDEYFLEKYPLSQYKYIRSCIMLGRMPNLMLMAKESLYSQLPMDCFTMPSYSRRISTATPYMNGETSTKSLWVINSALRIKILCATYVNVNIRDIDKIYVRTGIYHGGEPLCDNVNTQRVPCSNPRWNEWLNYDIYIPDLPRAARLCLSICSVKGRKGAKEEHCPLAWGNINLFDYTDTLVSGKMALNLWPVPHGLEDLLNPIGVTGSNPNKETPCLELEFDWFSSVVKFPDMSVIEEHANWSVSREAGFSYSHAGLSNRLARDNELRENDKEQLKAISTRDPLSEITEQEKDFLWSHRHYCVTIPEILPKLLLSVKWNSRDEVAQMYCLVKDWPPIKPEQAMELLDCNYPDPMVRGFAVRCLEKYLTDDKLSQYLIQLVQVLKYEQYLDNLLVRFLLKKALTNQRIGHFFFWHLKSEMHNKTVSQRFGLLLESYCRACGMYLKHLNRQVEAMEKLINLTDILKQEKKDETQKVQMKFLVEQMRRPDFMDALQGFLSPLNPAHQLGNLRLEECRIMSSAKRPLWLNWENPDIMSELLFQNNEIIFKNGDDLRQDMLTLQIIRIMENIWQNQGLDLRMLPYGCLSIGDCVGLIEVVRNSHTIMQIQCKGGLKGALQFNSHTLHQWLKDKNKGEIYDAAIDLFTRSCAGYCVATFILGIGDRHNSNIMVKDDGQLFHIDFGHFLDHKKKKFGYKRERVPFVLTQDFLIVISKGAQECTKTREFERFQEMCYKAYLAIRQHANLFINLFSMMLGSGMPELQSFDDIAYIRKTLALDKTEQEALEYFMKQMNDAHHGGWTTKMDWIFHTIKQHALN

SMILES | IC50
COc1ccc(-c2ccc3c(c2)nc(Nc2ccn[nH]2)n3-c2nc(C)nc(N)n2)cc1CO.COc1ccc(-c2ccc3nc(Nc4ccn[nH]4)n(-c4nc(C)nc(N)n4)c3c2)cc1CO | 0.0943 µM
CNc1nc(C)nc(-n2c(Nc3cc[nH]n3)nc3cc(C4=CCNCC4)ccc32)n1.CNc1nc(C)nc(-n2c(Nc3cc[nH]n3)nc3ccc(C4=CCNCC4)cc32)n1 | 4.24 µM
COCCNc1nc(C)nc(-n2c(Nc3cc[nH]n3)nc3ccccc32)n1 | 4.55 µM
CCNC(=S)Nc1ccc(Nc2nc3ccccc3n2-c2nc(C)nc(N)n2)cc1 | 0.47 µM
Cc1nc(NC2CC2)nc(-n2c(Nc3ccn[nH]3)nc3ccccc32)n1 | 4.85 µM
Cc1nc(N)nc(-n2c(Nc3ccc(NC(=O)C4CCCC4)cc3)nc3ccccc32)n1 | 1.37 µM
Cc1nc(NCCN2CCNCC2)nc(-n2c(Nc3cc[nH]n3)nc3ccccc32)n1 | 31.8 µM
Cc1nc(N)nc(-n2c(NC3CCOC3)nc3ccccc32)n1 (stereo unspecified) | 3.83 µM
CNc1nc(C)nc(-n2c(Nc3ccc(NC(C)=O)cc3)nc3ccccc32)n1 | 0.0531 µM
Cc1nc(NCCO)nc(-n2c(Nc3cc[nH]n3)nc3ccccc32)n1 | 7.26 µM
Cc1nc(NC2CCOCC2)nc(-n2c(Nc3cc[nH]n3)nc3ccccc32)n1 | 17.2 µM

More lines, in order of falling IC50, values ahead:

IC50 | SMILES
2.74 µM | Cc1nc(N)nc(-n2c(Nc3n[nH]c4cccc(F)c34)nc3ccccc32)n1
2.55 µM | Cc1nc(N)nc(-n2c(Nc3ccc(NC(=O)c4ccc(OC(F)(F)F)cc4)cc3)nc3ccccc32)n1
1.34 µM | Cc1nc(N)nc(-n2c(Nc3ccc(NS(=O)(=O)c4ccc(F)cc4)cc3)nc3ccccc32)n1
0.0581 µM | CNc1nc(C)nc(-n2c(Nc3cc[nH]n3)nc3ccc(-c4cncnc4)cc32)n1
0.0146 µM | Cc1nc(N)nc(-n2c(Nc3cccc4[nH]ncc34)nc3ccccc32)n1
